Test results: publication PMC6253875, “Synthesis and Evaluation of Non-peptidic Cysteine Protease Inhibitors of P. falciparum Derived from Etacrynic Acid” (Molecules, 2008)
Like-named read-outs stand apart in the source and are kept apart here.

Columns and labels:
falcipain-2 = target: T1, falcipain-2 (Plasmodium falciparum, UniProt Q8I6U4); assay: Inhibition of recombinant falcipain-2, fluorometric microplate assay (Cbz-Phe-Arg-AMC); format: biochemical
T1 construct: made in house; host or cells: E. coli
T1 sequence (Q8I6U4 244-484): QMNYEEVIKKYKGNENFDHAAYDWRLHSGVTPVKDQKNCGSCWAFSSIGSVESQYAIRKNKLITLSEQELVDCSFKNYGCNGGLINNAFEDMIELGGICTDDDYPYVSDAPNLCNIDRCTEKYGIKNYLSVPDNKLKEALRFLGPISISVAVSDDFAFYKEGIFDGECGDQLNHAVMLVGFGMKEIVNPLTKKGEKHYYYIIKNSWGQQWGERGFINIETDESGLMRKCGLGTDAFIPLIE
Description: (§1) Recombinant falcipain-2 and falcipain-3 were produced as previously described. Inhibitory activities against recombinant falcipain-2 and falcipain-3 were evaluated in fluorometric microplate assays using the substrates Cbz-Phe-Arg-AMC and Cbz-Leu-Arg-AMC (AMC, 7-amino-4-methyl-coumarin). The cysteine protease inhibitor E-64 was used as a positive control. The solvent DMSO was used as negative control. […] The in vitro data for the etacrynic acid derivatives are compared to those of the well known drug chloroquine and to E-64.
(§2) Falcipain-2 and falcipain-3 were recombinantly expressed in E. coli and refolded to active enzyme as previously described.
(§3) IC50 values for inhibition of falcipain-2 and falcipain-3 were determined as described previously using the fluorogenic substrates Cbz-Phe-Arg-AMC and Cbz-Leu-Arg-AMC, respectively (AMC, 7-amino-4 methylcoumarin). As a positive control the well-known cysteine protease inhibitor E-64 [7, 25, 26] and as a negative control the solvent (DMSO) was used. Dose-dependent effects of compounds on parasite development (P. falciparum strain W2) were quantified by flow cytometry according to a previously published method. First, a screening with inhibitor concentrations of […] was performed and the percentage activity of infected red blood cells (RBCs) relative to the negative control was determined. […] Chloroquine and E-64 were used as positive controls, and the solvent DMSO was used as a negative control. For selected compounds assays with the P. falciparum strain 3D7 were performed using a fluorometric assay with Hoechst-33258 [28], or the microculture tetrazolium test measuring parasite lactate dehydrogenase activity. The parasites were cultivated in vitro as described previously. Compounds were screened at concentrations between 1 nM and 100 μM. Synchronized ring stages were plated in 96-well plates at a parasitemia of 1%, in the presence of the compounds (dissolved in DMSO). Incubation of parasites with DMSO alone at a concentration of 0.5% v/v was used as a negative control. IC50 values were calculated by non-linear regression analyses using the programs GaphPad® Prism 4 and GraFit® [31, 32].

P. falciparum strain 3D7 = assay: Antiplasmodial activity in vitro, Hoechst-33258 fluorometric assay or parasite lactate dehydrogenase test; format: cell-based; details: Plasmodium falciparum; 3D7 strain (CQ-sensitive); read-out: P. f. 3D7/W2, IC50
Description: as §1, §3

falcipain-3 = target: T2, falcipain-3 (Plasmodium falciparum, UniProt Q8IIL0); assay: Inhibition of recombinant falcipain-3, fluorometric microplate assay (Cbz-Leu-Arg-AMC); format: biochemical
T2 construct: made in house; host or cells: E. coli
T2 sequence (Q8IIL0 243-492): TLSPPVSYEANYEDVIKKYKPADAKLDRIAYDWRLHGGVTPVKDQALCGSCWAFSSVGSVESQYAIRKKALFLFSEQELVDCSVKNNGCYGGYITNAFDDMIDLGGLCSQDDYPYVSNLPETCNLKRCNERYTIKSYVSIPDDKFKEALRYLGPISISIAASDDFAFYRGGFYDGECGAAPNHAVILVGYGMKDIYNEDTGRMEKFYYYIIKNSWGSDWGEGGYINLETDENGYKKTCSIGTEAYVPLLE
Description: as §1, §2, §3

P. falciparum strain W2 = assay: Antiplasmodial activity in vitro, parasite development quantified by flow cytometry; format: cell-based, Plasmodium falciparum; details: W2 strain (CQ-resistant), ni = no inhibition; for IC50: read-out: P. f. 3D7/W2, IC50
Description: as §3

[1] = In vitro cytotoxicity assay; format: cell-based; details: human, 293T human kidney epithelium cells; 293T cells
Description: Recombinant falcipain-2 and falcipain-3 were produced as previously described. […] The cysteine protease inhibitor E-64 was used as a positive control. The solvent DMSO was used as negative control. […] For the experimental procedures, cells were detached from the flasks with a rubber policeman, washed twice with PBS (phosphate-buffer saline) containing 1 mL trypsin-EDTA (1 x), and suspended at 2 x 10^6 cells mL^-1 in complete medium. Inhibitor assays were carried out as described elsewhere except that the cell concentration used in this study was 2 x 10^4 mL^-1 well^-1 [33].

[2] = recombinant falcipain-2, values marked ^a: only one experiment, ni = no inhibition
[3] = recombinant falcipain-2, values marked ^a: only one experiment, ni = no inhibition, read-out: FP-2 IC50
[4] = recombinant falcipain-3, ni = no inhibition
[5] = recombinant falcipain-3, ni = no inhibition, read-out: FP-3 IC50
[6] = Plasmodium falciparum, 3D7 / W2

Row | Compound | IC50 (falcipain-2; [3]) [µM] | P. f. 3D7/W2, IC50 (P. falciparum strain W2) | IC50 (falcipain-3; [5]) [µM] | also measured
1 | CCCCNC(=O)COc1ccc(C(=O)CCC)cc1F [Compound 30, N-butyl-2-(4-butyryl-2-fluorophenoxy)acetamide] | – | – | – | FP-2 IC50 (falcipain-2; [2]): ni
2 | C=C(CC)C(=O)c1ccc(OCC(=O)O)c(F)c1 [Compound 4, 2-(2-fluoro-4-(2-methylenebutanoyl)phenoxy)acetic acid] | – | – | – | IC50 (P. falciparum strain 3D7): 79.8 ± 6 µM
3 | CCCC(=O)c1ccc(OCC(=O)NC(C(=O)OC)C(C)CC)c(F)c1 (centres unmarked) [Compound 32, Methyl 2-(2-(4-butyryl-2-fluorophenoxy)acetamido)-3-methylpentanoate] | – | – | – | FP-2 IC50 (falcipain-2; [2]): ni
4 | C=C(CC)C(=O)c1ccc(OCC(=O)NC(C)(C)C)c(F)c1 [Compound 5, N-tert-butyl-2-(2-fluoro-4-(2-methylenebutanoyl)phenoxy)acetamide] | 80 ± 5 | – | – | IC50 (P. falciparum strain 3D7): 205 ± 9 µM
5 | C=C(CC)C(=O)c1ccc(OCC(=O)NC(C(=O)OC)C(C)CC)c(F)c1 (centres unmarked) [Compound 7, Methyl-2-(2-(2-fluoro-4-(2-methylenebutanoyl)phenoxy)acetamido)-3-methylpentanoate] | – | – | – | FP-2 IC50 (falcipain-2; [2]): ni
6 | C=C(CC)C(=O)c1ccc(OCC(=O)NCCCCCCNC(=O)CCCCC2SCC3NC(=O)NC32)c(Cl)c1Cl (centres unmarked) [Compound 24, 5-(2-Oxo-hexahydro-thieno[3,4-d]imidazol-4-yl)pentanoic acid (6-{2-[2,3-dichloro-4-(2-methylene-butyryl)-phenoxy]acetylamino}-hexyl)-amide] | 3 ± 1.1 | – | 11.9 ± 1.1 | IC50 (P. falciparum strain W2; [6]): 9 ± 0.4 µM
7 | C=C(CC)C(=O)c1ccc(OCC(=O)NCCCC)c(F)c1 [Compound 6, N-butyl-2-(2-fluoro-4-(2-methylenebutanoyl)phenoxy)acetamide] | – | – | – | FP-2 IC50 (falcipain-2; [2]): ni; IC50 (P. falciparum strain 3D7): 141 ± 4 µM; melting point: 73 °C
8 | CCCC(=O)c1ccc(OCC(=O)OC(C)(C)C)c(F)c1 [Compound 29, Tert-butyl-2-(4-butyryl-2-fluorophenoxy)acetate] | 80 ± 6 | – | – | –
9 | CC(C)C[C@H](NC(=O)[C@H]1O[C@@H]1C(=O)O)C(=O)NCCCCN=C(N)N [E-64, reference compound] | 0.015 ± 0.008 | – | 0.075 ± 0.02 | IC50 (P. falciparum strain W2): 5.3 ± 1.05 µM
10 | CCCC(=O)c1ccc(OCC(=O)NC(C)(C)CO)c(F)c1 [Compound 31, 2-(4-Butyryl-2-fluorophenoxy)-N-(1-hydroxy-2-methylpropan-2-yl)acetamide] | – | – | – | FP-2 IC50 (falcipain-2; [2]): ni
11 | CCCC(=O)c1ccc(OCC(=O)NC(C)(C)C)c(F)c1 [Compound 28, N-tert-butyl-2-(4-butyryl-2-fluorophenoxy)acetamide] | 80 ± 6 | – | – | IC50 (P. falciparum strain W2; [6]): 66.4 ± 2.2 µM
12 | C=C(CC)C(=O)c1ccc(OCC(=O)N2CCN(CC)CC2)c(Cl)c1Cl [Compound 19] | – | – | – | IC50 (falcipain-2): 144 ± 11 µM; IC50 (falcipain-3): 557 ± 23 µM; IC50 (P. falciparum strain W2; [6]): 27.4 ± 4.1 µM
13 | CCCC(=O)c1ccc(OCC(=O)NC(C)(C)C)c(Cl)c1Cl [Compound 26, N-tert-butyl-2-(4-butyryl-2,3-dichloro-phenoxy)-acetamide] | 484 | ni^c | – | FP-3 IC50 (falcipain-3; [4]): ni
14 | C=C(CC)C(=O)c1ccc(OCC(=O)OC(C)(C)C)c(F)c1 [Compound 3, Tert-butyl 2-(2-fluoro-4-(2-methylenebutanoyl)phenoxy)acetate] | – | – | – | FP-2 IC50 (falcipain-2; [2]): ni; IC50 (P. falciparum strain 3D7): 142 ± 5 µM

The next lines start with results.

Row | IC50 (falcipain-2; [3]) [µM] | P. f. 3D7/W2, IC50 (P. falciparum strain W2) | IC50 (falcipain-3; [5]) [µM] | Compound | also measured
15 | 531 | ni^c | – | CCC(C)C(=O)c1ccc(OCC(=O)O)c(Cl)c1Cl (centres unmarked) [Compound 25] | FP-3 IC50 (falcipain-3; [4]): ni
16 | 333 ± 5 | ni^c | 158 ± 11 | C=C(CC)C(=O)c1ccc(OCC(=O)NCc2ccccc2)c(Cl)c1Cl [Compound 11] | –
17 | 318 ± 14 | – | – | C=C(CC)C(=O)c1ccc(OCC(=O)NC(C)(C)C(N)=O)c(Cl)c1Cl [Compound 14] | FP-3 IC50 (falcipain-3; [4]): ni; IC50 (P. falciparum strain W2; [6]): 29.3 ± 3.4 µM
18 | 255 ± 4 | nic | 153 ± 16 | C=C(CC)C(=O)c1ccc(OCC(=O)NC(C)(C)C)c(Cl)c1Cl [Compound 18] | –
19 | 57.1 ± 13 | – | 96.5 ± 0.6 | C=C(CC)C(=O)c1ccc(OCC(=O)NCCCCCC(=O)O)c(Cl)c1Cl [Compound 23, 6-{2-[2,3-Dichloro-4-(2-methylene-butyryl)-phenoxy]acetylamino}-hexanoic acid] | IC50 (P. falciparum strain W2; [6]): 18.8 ± 0.9 µM; IC50 [1]: > 160 µM
20 | 182 ± 9 | nic | 123 ± 8 | C=C(CC)C(=O)c1ccc(OCC(=O)NCCCCCC)c(Cl)c1Cl [Compound 21] | –
21 | 165 ± 12 | – | – | C=C(CC)C(=O)c1ccc(OCC(=O)N[C@H](C)C(=O)OCc2ccccc2)c(Cl)c1Cl [Compound 12] | –
22 | 443 ± 17 | ni^c | – | C=C(CC)C(=O)c1ccc(OCC(=O)O)c(Cl)c1Cl [Compound 8, etacrynic acid] | FP-3 IC50 (falcipain-3; [4]): ni
23 | 184 ± 17 | nic | 158 ± 17 | C=C(CC)C(=O)c1ccc(OCC(=O)NCCCC)c(Cl)c1Cl [Compound 20] | –
24 | 212 ± 17 | nic | – | C=C(CC)C(=O)c1ccc(OCC(=O)NCC(=O)N[C@@H](C)C(N)=O)c(Cl)c1Cl [Compound 15] | FP-3 IC50 (falcipain-3; [4]): ni
25 | 110 ± 5 | ni^c | 381 ± 21 | C=C(CC)C(=O)c1ccc(Cl)cc1OCC(=O)OCC [Compound 2] | –
26 | 178 ± 14 | ni^c | 56.7 ± 5.7 | C=C(CC)C(=O)c1ccc(OCC(=O)N[C@@H](C)C(=O)OCc2ccccc2)c(Cl)c1Cl [Compound 10] | –
27 | 713 | ni^c | – | CCCCNC(=O)COc1ccc(C(=O)CCC)c(Cl)c1Cl [Compound 27, N-butyl-2-(4-butyryl-2,3-dichloro-phenoxy)-acetamide] | FP-3 IC50 (falcipain-3; [4]): ni
28 | 60.6 ± 4.2 | ni^c | 163 ± 5.6 | C=C(CC)C(=O)c1ccc(OCC(=O)OCC)c(Cl)c1Cl [Compound 9] | –
29 | 242 ± 19 | nic | – | C=C(CC)C(=O)c1ccc(OCC(=O)NCC(=O)N[C@@H](Cc2ccccc2)C(N)=O)c(Cl)c1Cl [Compound 16] | FP-3 IC50 (falcipain-3; [4]): ni
30 | – | nic | – | C=C(CC)C(=O)c1ccc(OCC(=O)NC(CCC(=O)O)C(=O)O)c(Cl)c1Cl (centres unmarked) [Compound 22, 2-{2-[2,3-Dichloro-4-(2-methylene-butyryl)-phenoxy]acetylamino}pentanedioic acid] | FP-2 IC50 (falcipain-2; [2]): ni; FP-3 IC50 (falcipain-3; [4]): ni
31 | 305 ± 30 | nic | 479 ± 23 | C=C(CC)C(=O)c1ccc(OCC(=O)N2CCOCC2)c(Cl)c1Cl [Compound 17] | –
32 | 269 ± 21 | nic | 87.2 ± 6 | C=C(CC)C(=O)c1ccc(OCC(=O)Nc2ccccc2)c(Cl)c1Cl [Compound 13] | –
33 | 498 ± 8 | ni^c | 346 ± 14 | C=C(CC)C(=O)c1ccc(OCC(=O)OCC)c(Cl)c1 [Compound 1] | –
